Test results as given in US12162888B2, “Carboxamides as ubiquitin-specific protease inhibitors” (Valo Early Discovery, Inc., priority 2018, dated 2024).

Biological target: T1, USP28 (His-tagged USP28-FL-mammalian) (Homo sapiens, UniProt Q96RU2)
T1 construct: Expression of USP28 (1-1077)-TEV-6*His (pTT5 vector) was carried out in Expi293f cells; made in house; host or cells: Expi293F cells (pTT5 vector)
T1 sequence (Q96RU2 1-1077): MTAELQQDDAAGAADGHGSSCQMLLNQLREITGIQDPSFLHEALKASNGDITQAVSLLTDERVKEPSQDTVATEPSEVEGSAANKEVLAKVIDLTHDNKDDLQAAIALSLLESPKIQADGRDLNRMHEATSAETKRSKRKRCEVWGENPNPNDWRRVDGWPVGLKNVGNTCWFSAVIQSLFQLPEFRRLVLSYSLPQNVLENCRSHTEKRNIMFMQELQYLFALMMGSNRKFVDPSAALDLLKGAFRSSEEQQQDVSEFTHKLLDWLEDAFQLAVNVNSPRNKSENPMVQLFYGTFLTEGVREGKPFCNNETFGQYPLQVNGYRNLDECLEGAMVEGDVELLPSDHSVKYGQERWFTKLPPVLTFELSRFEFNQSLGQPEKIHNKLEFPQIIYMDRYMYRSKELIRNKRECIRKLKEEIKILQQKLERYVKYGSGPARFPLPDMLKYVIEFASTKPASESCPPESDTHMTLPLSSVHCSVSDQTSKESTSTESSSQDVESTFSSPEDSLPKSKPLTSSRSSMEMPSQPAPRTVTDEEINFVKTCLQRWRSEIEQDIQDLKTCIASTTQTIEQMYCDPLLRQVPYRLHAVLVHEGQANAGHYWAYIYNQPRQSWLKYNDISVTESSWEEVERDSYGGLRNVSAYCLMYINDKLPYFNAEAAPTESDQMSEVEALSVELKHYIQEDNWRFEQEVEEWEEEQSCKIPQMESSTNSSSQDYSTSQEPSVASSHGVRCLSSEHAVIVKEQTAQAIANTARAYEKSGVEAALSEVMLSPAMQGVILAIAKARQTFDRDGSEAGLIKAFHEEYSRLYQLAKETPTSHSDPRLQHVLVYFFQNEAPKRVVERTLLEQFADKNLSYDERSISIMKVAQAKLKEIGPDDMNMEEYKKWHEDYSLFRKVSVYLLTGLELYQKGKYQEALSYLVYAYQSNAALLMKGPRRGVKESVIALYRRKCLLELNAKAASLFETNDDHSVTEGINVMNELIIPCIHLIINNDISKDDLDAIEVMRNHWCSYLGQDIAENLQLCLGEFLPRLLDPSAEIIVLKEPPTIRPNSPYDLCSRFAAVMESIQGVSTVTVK
Experiment: Ubiquitin-Rhodamine 110 Assay for USP28 Activity, Example A-1(a)
Format: biochemical
Details: Ubiquitin-Rhodamine 110 biochemical assay, read-out: USP28 A-1(a) IC50 range
Protocol: Example A-1(a): Biochemical Assay: Ubiquitin-Rhodamine 110 Assay for USP28 Activity
The assay was performed in a final volume of 9 μL in assay buffer containing 20 mM Tris-HCl (pH 8.0, (1M Tris-HCl, pH 8.0 solution; Corning 46-031-CM)), 3 mM BME (2-Mercaptoethanol; Sigma 63689-25ML-F), 0.03% BGG (0.22 μM filtered, Sigma, G7516-25G), and 0.01% Triton X-100 (Sigma, T9284-10L). Nanoliter quantities of 10-point, 3-fold serial dilution in DMSO was pre-dispensed into 1536 assay plates (Corning, #3724BC) for a final test concentration of 25 μM to 1.3 nM, top to lowest dose, respectively. Enzyme USP28, construct His-tagged USP28-FL-mammalian, (protein expression and purification procedure described below). Concentration and incubation times were optimized for the maximal signal-to-background while maintaining initial velocity conditions at a fixed substrate concentration. The final concentration of the enzyme in the assay was […]. Final substrate (Ub-Rh110; Ubiquitin-Rhodamine 110, UbiQ-126) concentration was 25 nM with [Ub-Rh110]<<Km. 3 μL of 2× enzyme was added to assay plates (pre-stamped with compound) preincubated with […] for 30 minutes and then 3 μL of 2× Ub-Rh110 was added to assay plates. Plates were incubated for 45 minutes at room temperature before addition of 3 μL of stop solution (final concentration of 10 mM citric acid (Sigma, 251275-500G)). Fluorescence was read on the Envision (Excitation at 485 nm and Emission at 535 nm; Perkin Elmer) or on the PheraSTAR (Excitation at 485 nm and Emission at 535 nm; BMG Labtech).
Procedure for the Protein expression and purification for construct His-tagged USP28-FL-mammalian
Expression of USP28 (1-1077)-TEV-6*His (pTT5 vector) was carried out in Expi293f cells (sequence derived from uniprot ID: Q96RU2-1). Cells were re-suspended in lysis buffer B 50 mM Bicine, pH 8.0, 20 mM NaCl, 5% glycerol, 0.1% CHAPS, 5 mM β-ME, 1 mM PMSF, 1 ug/ml Leupeptin, 1 ug/ml Pepstatin) and lysed by sonication. Insoluble material was removed by centrifugation and the supernatant was loaded onto a Ni-NTA column (GE Healthcare) equilibrated with Ni Buffer A (50 mM Bicine, pH 8.0, 20 mM NaCl, 5% glycerol, 0.1% CHAPS, 5 mM R-ME.) and washed with Ni Buffer A+20 mM imidazole until A280 reached baseline. The protein was eluted with Ni Buffer B (50 mM Bicine, pH 8.0, 20 mM NaCl, 5% glycerol, 0.1% CHAPS, 5 mM β-ME, 300 mM imidazole.). The protein was further purified using a Superdex™ 200 10/300 GL column (GE Healthcare) equilibrated with 50 mM Bicine, pH 8.0, 20 mM NaCl, 5% glycerol, 0.1% CHAPS, 5 mM β-ME. The protein was concentrated to 2.5 mg ml-1, flash-frozen in liquid N2 and stored at −80° C.
For assay formats Example A-1(a), A-1(b), and A-2, data were reported as percent inhibition compared with control wells based on the following equation: % inh=1−((FLU−AveLow)/(AveHigh−AveLow)) where FLU=measured Fluorescence, AveLow=average Fluorescence of no enzyme control (n=16), and AveHighh=average Fluorescence of DMSO control (n=16). IC50 values were determined by curve fitting of the standard 4 parameter logistic fitting algorithm included in the Activity Base software package: IDBS XE Designer Model 205. Data is fitted using the Levenburg Marquardt algorithm.

| Compound | IC50 [µM] |
| --- | --- |
| 3-amino-N-[(6S)-2-[(3S,4R)-3-(methoxymethyl)-4-[(^2H3)methylamino]pyrrolidin-1-yl]-5,6,7,8-tetrahydroquinolin-6-yl]-6-methylthieno[2,3-b]pyridine-2-carboxamide [Example 486] | 0.05 to 0.2 |
| Cc1ccc2c(N)c(C(=O)N[C@H]3CCc4nc(N5C[C@H](COC(F)F)[C@H](N)C5)ccc4C3)sc2n1 [Example 517, 3-amino-N-[(6S)-2-[(3S,4S)-3-amino-4-[(difluoromethoxy)methyl]pyrrolidin-1-yl]-5,6,7,8-tetrahydroquinolin-6-yl]-6-methylthieno[2,3-b]pyridine-2-carboxamide] | 0.05 to 0.2 |
| CO[C@@H]1CCCN(c2ccc3c(n2)CC[C@H](NC(=O)c2sc4nc(C)ccc4c2N)C3)C[C@H]1N [Example 493, 3-amino-N-[(6S)-2-[(3R,4R)-3-amino-4-methoxyazepan-1-yl]-5,6,7,8-tetrahydroquinolin-6-yl]-6-methylthieno[2,3-b]pyridine-2-carboxamide] | 0.001 to 0.05 |
| Cc1ccc2c(N)c(C(=O)N[C@H]3CCc4nc(N5C[C@@H](COC(F)F)[C@@H](N)C5)ccc4C3)sc2n1 [Example 516, 3-amino-N-[(6S)-2-[(3R,4R)-3-amino-4-[(difluoromethoxy)methyl]pyrrolidin-1-yl]-5,6,7,8-tetrahydroquinolin-6-yl]-6-methylthieno[2,3-b]pyridine-2-carboxamide] | 0.05 to 0.2 |
| CO[C@@H]1CN(c2ccc3c(n2)CC[C@H](NC(=O)c2sc4nc(C)cnc4c2N)C3)C[C@@H]1N [Example 491, 7-amino-N-[(6S)-2-[(3S,4R)-3-amino-4-methoxypyrrolidin-1-yl]-5,6,7,8-tetrahydroquinolin-6-yl]-3-methylthieno[2,3-b]pyrazine-6-carboxamide] | 0.05 to 0.2 |
| Cc1ccc2c(N)c(C(=O)N[C@H]3CCc4nc(N5C[C@@H](COC(F)(F)F)[C@@H](N)C5)ccc4C3)sc2n1 [Example 484, 3-amino-N-[(6S)-2-[(3R,4R)-3-amino-4-[(trifluoromethoxy)methyl]pyrrolidin-1-yl]-5,6,7,8-tetrahydroquinolin-6-yl]-6-methylthieno[2,3-b]pyridine-2-carboxamide] | 0.2 to 2 |

Same assay, conditions: biochemical IC50 range, Ubiquitin-Rhodamine 110 assay, read-out: USP28 A-1(a)

| Compound | IC50 [µM] |
| --- | --- |
| CO[C@@H]1CCCN(c2cc(F)c3c(c2)OC[C@H](NC(=O)c2sc4nc(C)ccc4c2N)C3)C[C@@H]1N [Example 692, 3-amino-N-[(3R)-7-[(3S,4R)-3-amino-4-methoxyazepan-1-yl]-5-fluoro-3,4-dihydro-2H-1-benzopyran-3-yl]-6-methylthieno[2,3-b]pyridine-2-carboxamide] | 0.001 to 0.05 |
| Cc1ccc2c(N)c(C(=O)N[C@H]3COc4cc(N5C[C@H](N)[C@]6(CCCCO6)C5)ccc4C3)sc2n1 [Example 652, 3-amino-N-[(3R)-7-[(4S,5S)-4-amino-6-oxa-2-azaspiro[4.5]decan-2-yl]-3,4-dihydro-2H-1-benzopyran-3-yl]-6-methylthieno[2,3-b]pyridine-2-carboxamide] | 0.001 to 0.05 |
| Cc1ccc2c(N)c(C(=O)N[C@H]3COc4cc(N5CC[C@]6(CCCN6)C5)cc(F)c4C3)sc2n1 [Example 683, 3-amino-N-[(3R)-7-[(5R)-1,7-diazaspiro [4.4]nonan-7-yl]-5-fluoro-3,4-dihydro-2H-1-benzopyran-3-yl]-6-methylthieno [2,3-b]pyridine-2-carboxamide] | 0.001 to 0.05 |
| COC[C@@H]1CN(c2cc(F)c3c(c2)OC[C@H](NC(=O)c2sc4nc(C)ncc4c2N)C3)C[C@@H]1N [Example 694, 5-amino-N-[(3R)-7-[(3R,4R)-3-amino-4-(methoxymethyl)pyrrolidin-1-yl]-5-fluoro-3,4-dihydro-2H-1-benzopyran-3-yl]-2-methylthieno[2,3-d]pyrimidine-6-carboxamide] | 0.2 to 2 |
| Cc1ccc2c(N)c(C(=O)N[C@H]3COc4nc(N5C[C@@H](CF)[C@H](N)C5)ccc4C3)sc2n1 [Example 542, 3-amino-N-[(3R)-7-[(3S,4R)-3-amino-4-(fluoromethyl)pyrrolidin-1-yl]-2H,3H,4H-pyrano[2,3-b]pyridin-3-yl]-6-methylthieno[2,3-b]pyridine-2-carboxamide] | 0.05 to 0.2 |
| CNc1ncc(C(=O)N[C@H]2COc3cc(N4CCNCC4)ccc3C2)c2[nH]cc(Cl)c12 [Example 675, 3-chloro-4-(methylamino)-N-[(3R)-7-(piperazin-1-yl)-3,4-dihydro-2H-1-benzopyran-3-yl]-1H-pyrrolo[3,2-c]pyridine-7-carboxamide] | 0.2 to 2 |
| Cc1ccc2c(N)c(C(=O)N[C@H]3COc4nc(N5C[C@H](CF)[C@@H](N)C5)ccc4C3)sc2n1 [Example 541, 3-amino-N-[(3R)-7-[(3R,4S)-3-amino-4-(fluoromethyl)pyrrolidin-1-yl]-2H,3H,4H-pyrano[2,3-b]pyridin-3-yl]-6-methylthieno[2,3-b]pyridine-2-carboxamide] | 0.2 to 2 |
| Cc1ccc2c(N)c(C(=O)N[C@H]3COc4cc(N5C[C@H](N)[C@@]6(C5)OCC[C@@H]6C)ccc4C3)sc2n1 [Example 612-1, 3-amino-N-[(3R)-7-[(4S,5R,9S)-9-amino-4-methyl-1-oxa-7-azaspiro[4.4]nonan-7-yl]-3,4-dihydro-2H-1-benzopyran-3-yl]-6-methylthieno[2,3-b]pyridine-2-carboxamide] | 0.001 to 0.05 |
| Cc1ccc2c(N)c(C(=O)N[C@H]3COc4cc(N5C[C@@H](N)[C@@]6(CCCCO6)C5)ccc4C3)sc2n1 [Example 653, 3-amino-N-[(3R)-7-[(4R,5R)-4-amino-6-oxa-2-azaspiro[4.5]decan-2-yl]-3,4-dihydro-2H-1-benzopyran-3-yl]-6-methylthieno[2,3-b]pyridine-2-carboxamide] | 0.001 to 0.05 |
